Source: patent publication US12612392B2, “Compound, pharmaceutical compositions containing same, synthesis method therefor and use thereof” (SHENZHEN ZHONGGE BIOLOGICAL TECHNOLOGY CO., LTD., priority 2022, dated 2026)

Legend:
[1] = test system: model animals; conditions: oral administration for three days; cited from earlier work
[2] = test system: healthy participants; conditions: Phase 1, healthy participants; cited from earlier work
[3] = test system: mouse models; conditions: cited from earlier work
[4] = In vitro liver microsome stability; type: in vitro ADME; conditions: liver microsomes, NADPH, 37° C.
Protocol: A 5 mM MgCl2 100 mM K-Mg buffer solution was pre-heated. 5 μL of a 10 mM compound and a reference stock solution were added to 95 μL of acetonitrile (ACN) to prepare a spiked solution. 1.5 μL of a 500 µM spiked solution and 18.75 μL of 20 mg/mL liver microsomes were added to 479.8 μL of the K-Mg buffer solution. NADPH was dissolved in the K-Mg-buffer solution to prepare an NADPH stock solution ([…]). At different time points (0, 5, 15, 30 and 45 minutes), 30 μL of a 1.5 μM spiked solution containing the microsomes was evenly dropped into an assay plate. The plate was preincubated at 37° C. for 5 minutes. At 0 min, 200 μL of ACN containing IS (internal standard, tolbutamid/terfenadine) was added to the wells, and then 15 μl of the NADPH stock solution (6 mM) was added. For other time points, 15 μL of the NADPH stock solution (6 mM) was added to the wells to initiate the reaction and start the timing. At 5, 15, 30 and 45 min, the reaction was stopped by adding 200 μL of ACN containing IS to the corresponding wells of the plate. After quenching, the plate was shaken at 600 rpm for 10 minutes and then centrifuged at 4000 rpm for 50 minutes. 80 μL of the supernatant from each well was transferred to a 96-well sample plate containing 160 μL of pure water for UPLC/MS/MS analysis.

Question: For `NC(CO)(CO)CO.O=C(COc1ccc(Cl)c(F)c1)NC12CCC(NC(=O)COc3ccc(Cl)c(F)c3)(CC1)[C@@H](OCOP(=O)([O-])O)C2.[Na+]` [ABBV-CLS-7262], which “brain function of model animals” value [1] is on record?
Answer: restored to youthful levels

Question: With `O=C(COc1ccc(Cl)cc1)NC12CC(c3nnc([C@H]4C[C@@H](OC(F)(F)F)C4)o3)(C1)C2` [DNL-343] as the compound, how does the safety and tolerability [2] read?
Answer: demonstrated its safety and tolerability

Question: For `O=C(COc1ccc(Cl)cc1)NC1CCC(NC(=O)COc2ccc(Cl)cc2)CC1` (stereo not shown) [ISRIB], which “long-term memory in mouse models” value [3] is on record?
Answer: improve long-term memory

Question: For `O=C(c1ccc(F)cc1)C1CCN(CCn2c(=O)[nH]c3ccccc3c2=O)CC1` [Ketanserin, reference compound], which half-life at 1 µM [4] is on record?
Answer: 36.8 min
